Data as given in patent US10765662B2, “Mono- or di-substituted indole derivatives as dengue viral replication inhibitors” (Janssen Pharmaceuticals, Inc., priority 2015, dated 2020).

What was measured:
[1] = system: DENV-2 16681 strain labeled with enhanced green fluorescent protein; experiment: DENV-2 antiviral assay (eGFP fluorescence read-out in Vero cells); type: cell-based, Dengue virus; conditions: DENV-2 16681 eGFP, MOI 0.5, 3 days
Method: The antiviral activity of all the compounds of the invention was tested against the DENV-2 16681 strain which was labeled with enhanced green fluorescent protein (eGPF). The culture medium consists of minimal essential medium supplemented with 2% of heat-inactivated fetal calf serum, 0.04% gentamycin (50 mg/mL) and 2 mM of L-glutamine. Vero cells, obtained from ECACC, were suspended in culture medium and 25 μL was added to 384-well plates (2500 cells/well), which already contain the antiviral compounds. Typically, these plates contain a 5-fold serial dilution of 9 dilution steps of the test compound at 200 times the final concentration in 100% DMSO (200 nL). […] Finally, each plate contains wells which are assigned as virus controls (containing cells and virus in the absence of compound), cell controls (containing cells in the absence of virus and compound) and medium controls (containing medium in the absence of cells, virus and compounds). To the wells assigned as medium control, 25 μL of culture medium was added instead of Vero cells. Once the cells were added to the plates, the plates were incubated for 30 minutes at room temperature to allow the cells to distribute evenly within the wells. Next, the plates were incubated in a fully humidified incubator (37° C., 5% CO2) until the next day. Then, DENV-2 strain 16681, labeled with eGFP, was added at a multiplicity of infection (MOI) of 0.5. Therefore, 15 μL of virus suspension was added to all the wells containing test compound and to the wells assigned as virus control. In parallel, 15 μL of culture medium was added to the medium and cell controls. Next, the plates were incubated for 3 days in a fully humidified incubator (37° C., 5% CO2). At the day of the read out, the eGFP fluorescence was measured using an automated fluorescence microscope at 488 nm (blue laser). Using an in-house LIMS system, inhibition dose response curves for each compound were calculated and the half maximal effective concentration (EC50) was determined. Therefore, the percent inhibition (I) for every test concentration is calculated using the following formula: I=100*([…])/(SVC−SCC); ST, SCC and SVC are the amount of eGFP signal in the test compound, cell control and virus control wells, respectively. The EC50 represents the concentration of a compound at which the virus replication is inhibited with 50%, as measured by a 50% reduction of the eGFP fluorescent intensity compared to the virus control. The EC50 is calculated using linear interpolation (Table 1).

[2] = in vitro; type: cell-based; conditions: African green monkey, CC50
Method: (§1) In parallel, the toxicity of the compounds was assessed on the same plates. Once the read-out for the eGFP signal was done, 40 μL of ATPlite, a cell viability stain, was added to all wells of the 384-well plates. ATP is present in all metabolically active cells and the concentration declines very rapidly when the cells undergo necrosis or apoptosis. The ATPLite assay system is based on the production of light caused by the reaction of ATP with added luciferase and D-luciferin. The plates were incubated for 10 minutes at room temperature. Next, the plates were measured on a ViewLux. The half maximal cytotoxic concentration (CC50) was also determined, defined as the concentration required to reduce the luminescent signal by 50% compared to that of the cell control wells. Finally, the selectivity index (SI) was determined for the compounds, which was calculated as followed: SI=CC50/EC50.

[3] = system: DENV-3 strain H87; experiment: Tetravalent RT-qPCR assay Protocol A, serotype 3; type: cell-based; conditions: Dengue virus, DENV3, 72 h; RT-qPCR serotype 3 H87, Vero cells, day 3
Method: (§2) The antiviral activity of the compounds of the invention was tested against DENV-1 strain TC974#666 (NCPV), DENV-2 strain 16681, DENV-3 strain H87 (NCPV) and DENV-4 strains H241 (NCPV) and EDEN (SG/06K2270DK1/2005; GenBank accession number QG398256) in a RT-qPCR assay. Therefore, Vero cells were infected with either DENV-1, or -2, or -3, or -4 in the presence or absence of test compounds. At day 3 post-infection, the cells were lysed and cell lysates were used to prepare cDNA of both a viral target (the 3′UTR of DENV; Table 2) and a cellular reference gene (β-actin, Table 2). Subsequently, a duplex real time PCR was performed on a Lightcycler480 instrument. The generated Cp value is inversely proportional to the amount of RNA expression of these targets. Inhibition of DENV replication by a test compound results in a shift of Cp's for the 3′UTR gene. On the other hand, if a test compound is toxic to the cells, a similar effect on β-actin expression will be observed. The comparative ΔΔCp method is used to calculate EC50, which is based on the relative gene expression of the target gene (3′UTR) normalized with the cellular housekeeping gene (β-actin). In addition, CC50 values are determined based on the Cp values acquired for the housekeeping gene β-actin.
(§3) The culture medium consisted of minimal essential medium supplemented with 2% of heat-inactivated fetal calf serum, 0.04% gentamycin (50 mg/mL) and 2 mM of L-glutamine. Vero cells, obtained from ECACC, were suspended in culture medium and 75 μL/well was added in 96-well plates (10000 cells/well), which already contain the antiviral compounds. […] In addition, each plate contains wells which are assigned as virus controls (containing cells and virus in the absence of compound) and cell controls (containing cells in the absence of virus and compound). Once the cells were added in the plates, the plates were incubated in a fully humidified incubator (37° C., 5% CO2) until the next day. Dengue viruses serotype-1, 2, 3 and 4 were diluted in order to obtain a Cp of ˜22-24 in the assay. Therefore, 25 μL of virus suspension, was added to all the wells containing test compound and to the wells assigned as virus control. In parallel, 25 μL of culture medium was added to the cell controls. Next, the plates were incubated for 3 days in a fully humidified incubator (37° C., 5% CO2). After 3 days, the supernatant was removed from the wells and the cells were washed twice with ice-cold PBS (˜100 μL). The cell pellets within the 96-well plates were stored at −80° C. for at least 1 day. Next, RNA was extracted using the Cells-to-CT™ lysis kit, according to the manufacturer's guideline (Life Technologies). The cell lysates can be stored at −80° C. or immediately used in the reverse transcription step.
(§4) In preparation of the reverse transcription step, mix A (table 3A) was prepared and 7.57 μL/well was dispensed in a 96-well plate. After addition of 5 μL of the cell lysates, a five minute denaturation step at 75° C. was performed (table 3B). Afterwards, 7.43 μL of mix B was added (table 3C) and the reverse transcription step was initiated (table 3D) to generate cDNA.
(§5) Finally, a RT-qPCR mix was prepared, mix C (table 4A), and 22.02 μL/well was dispensed in 96-well LightCycler qPCR plates to which 3 μL of cDNA was added and the qPCR was performed according to the conditions in table 4B on a LightCycler 480.
(§6) Using the LightCycler software and an in-house LIMS system, dose response curves for each compound were calculated and the half maximal effective concentration (EC50) and the half maximal cytotoxic concentration (CC50) were determined (Tables 5-8).

[4] = system: DENV-1 strain TC974#666; experiment: Tetravalent RT-qPCR assay Protocol A, serotype 1; type: cell-based; conditions: Dengue virus, DENV1, 72 h; RT-qPCR serotype 1 TC974#666, Vero cells, day 3
Method: as §2, §3, §4, §5, §6

[5] = system: DENV-4 strain H241; experiment: Tetravalent RT-qPCR assay Protocol A, serotype 4 H241; type: cell-based; conditions: Dengue virus, DENV4, Vero, 72 h
Method: as §2, §3, §4, §5, §6

[6] = system: DENV-4 strain EDEN (SG/06K2270DK1/2005); experiment: Tetravalent RT-qPCR assay Protocol A, serotype 4 EDEN; type: cell-based; conditions: Dengue virus, DENV4, 72 h; RT-qPCR serotype 4 EDEN, Vero cells, day 3
Method: as §2, §3, §4, §5, §6

[7] = system: DENV-2 strain 16681; experiment: Tetravalent RT-qPCR assay Protocol A, serotype 2; type: cell-based; conditions: Dengue virus, DENV2, 72 h; RT-qPCR serotype 2 16681, Vero cells, day 3
Method: as §2, §3, §4, §5, §6

[8] = system: Vero cells; experiment: in vitro; type: cell-based; conditions: African green monkey
Method: as §1

[9] = in vitro; type: cell-based; conditions: African green monkey
Method: as §2, §3, §6

[10] = Dengue virus, DENV2, Vero, 72 h

SMILES: COc1cc(NC(C(=O)c2c[nH]c3c(C)c(Cl)ccc23)c2ccc(Cl)cc2OCCO)cc(S(C)(=O)=O)c1 (racemic) [Compound 5, 2-(4-chloro-2-(2-hydroxyethoxy)phenyl)-1-(6-chloro-7-methyl-1H-indol-3-yl)-2-((3-methoxy-5-(methylsulfonyl)phenyl)amino)ethanone]
- melting point: 206 °C
- EC50 [1, 10]: 0.1 nM
- CC50 [2]: 4300 nM

SMILES: COc1cc(NC(C(=O)c2c[nH]c3ccc(C(F)(F)F)cc23)c2ccc(Cl)cc2OCCO)cc(S(C)(=O)=O)c1 (racemic) [Compound 9, 2-(4-chloro-2-(2-hydroxyethoxy)phenyl)-2-((3-methoxy-5-(methylsulfonyl)phenyl)amino)-1-(5-(trifluoromethyl)-1H-indol-3-yl)ethanone]
- melting point: 228 °C
- EC50 [1, 10]: 0.1 nM
- CC50 [2]: > 2500 nM

SMILES: COc1cc(NC(C(=O)c2c[nH]c3cc(OC)c(OC(F)(F)F)cc23)c2ccc(Cl)cc2OCCO)cc(S(C)(=O)=O)c1 (racemic) [Compound 11, 2-(4-chloro-2-(2-hydroxyethoxy)phenyl)-2-((3-methoxy-5-(methylsulfonyl)phenyl)amino)-1-(6-methoxy-5-(trifluoromethoxy)-1H-indol-3-yl)ethanone]
- melting point: 212 °C
- EC50 [1, 10]: 0.2 nM
- CC50 [2]: > 2500 nM

SMILES: COc1cc(NC(C(=O)c2c[nH]c3cc(Cl)ccc23)c2ccc(Cl)cc2OCCO)cc(S(C)(=O)=O)c1 (single isomer, unassigned) [Compound 2A, 1-(6-chloro-1H-indol-3-yl)-2-(4-chloro-2-(2-hydroxyethoxy)phenyl)-2-((3-methoxy-5-(methylsulfonyl)phenyl)amino)ethanone]
- EC50 [3]: 18 nM
- EC50 [4]: 1.6 nM
- EC50 [5]: 74 nM
- EC50 [6]: 1.3 nM
- EC50 [1]: 0.11 nM
- EC50 [7]: 0.14 nM
- CC50 [8]: 3400 nM
- CC50 at 3 days [9]: > 2500 nM

SMILES: COc1cc(NC(C(=O)c2c[nH]c3cc(OC)ccc23)c2ccc(Cl)cc2OCCO)cc(S(C)(=O)=O)c1 (single isomer, unassigned) [Compound 3A, 2-(4-chloro-2-(2-hydroxyethoxy)phenyl)-1-(6-methoxy-1H-indol-3-yl)-2-((3-methoxy-5-(methylsulfonyl)phenyl)amino)ethanone]
- EC50 [3]: 42 nM
- EC50 [4]: 4.2 nM
- EC50 [5]: 110 nM
- EC50 [6]: 3.1 nM
- EC50 [1]: 0.32 nM
- EC50 [7]: 0.4 nM
- CC50 [8]: 5200 nM
- CC50 at 3 days [9]: 5800 nM

SMILES: COc1cc(NC(C(=O)c2c[nH]c3c(C)c(F)ccc23)c2ccc(Cl)cc2OCCO)cc(S(C)(=O)=O)c1 (single isomer, unassigned) [Compound 4A, 2-(4-chloro-2-(2-hydroxyethoxy)phenyl)-1-(6-fluoro-7-methyl-1H-indol-3-yl)-2-((3-methoxy-5-(methylsulfonyl)phenyl)amino)ethanone]
- EC50 [3]: 18 nM
- EC50 [4]: 1.7 nM
- EC50 [5]: 78 nM
- EC50 [6]: 1.4 nM
- EC50 [1]: 0.13 nM
- EC50 [7]: 0.16 nM
- CC50 [2]: 3000 nM
- CC50 at 3 days [9]: > 2500 nM

SMILES: COc1cc(NC(C(=O)c2c[nH]c3c(C)c(Cl)ccc23)c2ccc(Cl)cc2OCCO)cc(S(C)(=O)=O)c1 (single isomer, unassigned) [Compound 5B, 2-(4-chloro-2-(2-hydroxyethoxy)phenyl)-1-(6-chloro-7-methyl-1H-indol-3-yl)-2-((3-methoxy-5-(methylsulfonyl)phenyl)amino)ethanone]
- EC50 [3]: 12 nM
- EC50 [4]: 1.6 nM
- EC50 [5]: 74 nM
- EC50 [6]: 1.1 nM
- EC50 [1]: 0.066 nM
- EC50 [7]: 0.065 nM
- CC50 [8]: 3400 nM
- CC50 at 3 days [9]: > 2500 nM

SMILES: COc1cc(NC(C(=O)c2c[nH]c3cc(OC)c(C)cc23)c2ccc(Cl)cc2OCCO)cc(S(C)(=O)=O)c1 (single isomer, unassigned) [Compound 6A, 2-(4-chloro-2-(2-hydroxyethoxy)phenyl)-2-((3-methoxy-5-(methylsulfonyl)phenyl)amino)-1-(6-methoxy-5-methyl-1H-indol-3-yl)ethanone]
- EC50 [3]: 17 nM
- EC50 [4]: 1.6 nM
- EC50 [5]: 53 nM
- EC50 [6]: 1 nM
- EC50 [1]: 0.13 nM
- EC50 [7]: 0.21 nM
- CC50 [2]: 3800 nM
- CC50 at 3 days [9]: 4900 nM

SMILES: COc1cc(NC(C(=O)c2c[nH]c3cc(F)c(F)cc23)c2ccc(Cl)cc2OCCO)cc(S(C)(=O)=O)c1 (single isomer, unassigned) [Compound 7A, 2-(4-chloro-2-(2-hydroxyethoxy)phenyl)-1-(5,6-difluoro-1H-indol-3-yl)-2-((3-methoxy-5-(methylsulfonyl)phenyl)amino)ethanone]
- EC50 [3]: 11 nM
- EC50 [4]: 0.97 nM
- EC50 [5]: 64 nM
- EC50 [6]: 0.64 nM
- EC50 [1]: 0.22 nM
- EC50 [7]: 0.21 nM
- CC50 [8]: 2700 nM
- CC50 at 3 days [9]: 2900 nM
